Data published in patent US20220071952A1, “METHODS OF TREATING AND PREVENTING HEPATOTOXICITY” (Natreon, Inc., priority 2020, published 2022).

What was measured:
[1] = test system: CCl4-induced hepatotoxicity in mice; experiment: Synergistic hepatoprotective activity of DBPs against CCl4-induced hepatotoxicity (Example IV); conditions: CCl4 1 ml/kg, Ursocol 250 mg/kg b.w., mean ± SEM, n=4
[2] = test system: alcohol-induced hepatotoxicity in mice; experiment: Synergistic hepatoprotective activity of DBPs against alcohol-induced hepatotoxicity (Example IV); conditions: for ACP / ALP / ALT / AST / Total Protein: alcohol 5 g/kg, Ursocol 250 mg/kg b.w., mean ± SEM, n=4
Description: Hepatotoxicity was induced by oral administration of alcohol (ethanol: 5 g/kg) from stock 400 mg/ml twice daily for 15 days.
3-OH-DBP and 3,8-(OH)2-DBP were each separately suspended in 0.3% CMC and administered at a dose of 10 mg/kg body weight per orally for 15 days. During the 15 days treatment, body weight, food intake, and water intake were monitored at regular intervals. Following 15 days of treatment physical parameters (relative organ weight) and biochemical parameters (plasma total protein content, ALT, AST, ALP, and ACP) were studied.
3-OH-DBP (2 mg/kg body weight, 10 mg/kg body weight);
3,8-(OH)2-DBP (10 mg/kg body weight, 50 mg/kg body weight); and

Compound `C[C@H](CCC(=O)O)[C@H]1CC[C@H]2[C@@H]3[C@@H](O)C[C@@H]4C[C@H](O)CC[C@]4(C)[C@H]3CC[C@]12C` [Ursocol, ursodeoxycholic acid, reference compound] has an ACP ([1]; female mice) of 29 ± 3.3 U/L, an ALP ([1]; female mice) of 45 ± 6.9 IU/L and an ALT ([1]; female mice) of 50 ± 5.6 IU/L. The AST ([1]; female mice) was 49 ± 6.8 IU/L, the “Total Protein” value ([1]; female mice) was 6 ± 0.22 g/dL and the ACP ([1]; male mice) was 22 ± 4.4 ^ U/L. The ALP ([1]; male mice) was 60 ± 9.9 ^ IU/L, the ALT ([1]; male mice) was 21 ± 2.6 ^ IU/L and the AST ([1]; male mice) was 18 ± 3.4 ^ IU/L. The “Total Protein” value ([1]; male mice) was 6 ± 0.55 g/dL, the ACP ([2]; female mice) was 2.4 ± 0.47 U/L and the ALP ([2]; female mice) was 49 ± 6.5 IU/L. The ALT ([2]; female mice) was 26.63 ± 2.85 IU/L, the AST ([2]; female mice) was 25.39 ± 4.08 IU/L and the “Total Protein” value ([2]; female mice) was 5.97 ± 0.53 g/dL. The ACP ([2]; male mice) was 3.19 ± 0.36 U/L, the ALP ([2]; male mice) was 86.1 ± 3.73 IU/L and the ALT ([2]; male mice) was 26.6 ± 1.94 ^ IU/L. For the same compound, the AST ([2]; male mice) was 24.3 ± 3.84 IU/L, the “Total Protein” value ([2]; male mice) was 8.83 ± 0.16 g/dL and the Relative liver weight ([2]; male mice, alcohol study of Example IV) was “significantly increased”.
